From patent publication US20120114583A1, “USE OF DIHYDROQUERCETIN AND AT LEAST ONE AMINO ACID TO POSITIVELY INFLUENCE THE NATURAL PIGMENTATION PROCESS” (Henkel AG & Co. KGaA, priority 2009, published 2012)

Legend:
Assay type in all cases: cell-based
[1] = system: hair follicle equivalents; test: Melanin content in hair follicle equivalents; settings: for Melanin content d4 Mean: day 4; for Melanin content d7 Mean: day 7, untreated control 181
Protocol: In order to assess the melanin content, three-dimensional organotypical hair follicle cell cultures prepared from dermal papilla cells, hair follicle melanocytes and outer root sheath keratinocytes were treated with dihydroquercetin (10 μM and 100 μM) for 7 days. Untreated cell cultures served as a control. After 4 and 7 days respectively, the hair follicle equivalents were homogenized and the melanin extracted with NaOH (1M)+10% DMSO at 100° C. for 45 min. Aliquots of the specimens were then transferred to a 96-well plate and the extinction was measured at 492 nm. The rise in the melanin content from day 0 to day 7 was evaluated. All values were referenced to the untreated control on day 7 (=100%).

ckit = test: Differential gene expression of ckit by quantitative RT-PCR in organotypical hair follicle cell cultures; settings: for ckit expression, Mean: 48 h, dermal papilla cell 3D cultures, untreated control = 1
Text: (§1) The ligands involved in melanogenesis, such as SCF or alpha-MSH (melanocyte stimulating hormone alpha) bind to different receptors, through which the corresponding signal is transmitted into the cell interior. The receptor for SCF is ckit, the receptor for alpha-MSH is MCR-1 (melanocortin receptor 1). Substances that bring about a change in the expression of MCR-1 and/or ckit can influence melanogenesis. If an induction (up-regulation or stimulation) of the gene expression of the corresponding receptors occurs, melanogenesis is assumed to be stimulated. Differential gene expression was determined by means of quantitative RT-PCR. After preparing three-dimensional organotypical hair follicle cell cultures from dermal papilla cells on microcarriers, they were incubated for 48 h with dihydroquercetin in two different concentrations. In order to perform PCR the RNA was first isolated from the organotypical cell cultures with the aid of an RNeasy Mini Kit from Qiagen and transcribed into cDNA by reverse transcription. In the subsequent PCR reaction, which is performed for each gene with the aid of gene-specific primers and which serves to amplify the required gene sections, the formation of PCR products is detected online via a fluorescence signal. The fluorescence signal is proportional to the amount of PCR product formed. The stronger the expression of a particular gene, the greater the amount of PCR product formed and the higher the fluorescence signal. To quantify the gene expression the untreated control is set to 1 and the expression of the gene to be determined is referenced thereto (x-times expression). […] Values greater than or equal to the 1.5 times expression or less than or equal to the 0.7 times expression of the untreated control are classed as being expressed in a tangentially differential manner.

gp100 = test: Differential gene expression of gp100 by quantitative RT-PCR in organotypical hair follicle cell cultures; settings: for gp100 expression, Mean: 48 h, dermal papilla cell 3D cultures, untreated control = 1
Protocol: Gp 100 is a protein that occurs in the membrane of melanosomes and stabilizes them. Since more melanin is produced in the cells following application of substances that positively influence melanogenesis, an increase in the melanosomes necessary for transport also occurs. A substance that induces the gene expression of gp100 is therefore a pigmentation-stimulating active ingredient. Differential gene expression was determined by means of quantitative RT-PCR. After preparing three-dimensional organotypical hair follicle cell cultures from dermal papilla cells on microcarriers, they were incubated for 48 h with dihydroquercetin in two different concentrations. In order to perform PCR the RNA was first isolated from the organotypical cell cultures with the aid of an RNeasy Mini Kit from Qiagen and transcribed into cDNA by reverse transcription. In the subsequent PCR reaction, which is performed for each gene with the aid of gene-specific primers and which serves to amplify the required gene sections, the formation of PCR products is detected online via a fluorescence signal. The fluorescence signal is proportional to the amount of PCR product formed. The stronger the expression of a particular gene, the greater the amount of PCR product formed and the higher the fluorescence signal. To quantify the gene expression the untreated control is set to 1 and the expression of the gene to be determined is referenced thereto (x-times expression). […] Values greater than or equal to the 1.5 times expression or less than or equal to the 0.7 times expression of the untreated control are classed as being expressed in a tangentially differential manner.

[2] = system: MCR1 (melanocortin receptor 1); test: Differential gene expression of MCR1 by quantitative RT-PCR in organotypical hair follicle cell cultures; settings: for MCR1 expression, Mean: 48 h, dermal papilla cell 3D cultures, untreated control = 1
Text: as §1

O=C1c2c(O)cc(O)cc2OC(c2ccc(O)c(O)c2)C1O (stereo not drawn) [Dihydroquercetin, 3,3′,4′,5,7-pentahydroxyflavanone]
Melanin content d4 Mean ([1]; 10 μM): 100% | Melanin content d7 Mean ([1]; 10 μM): 254% | Melanin content d4 Mean ([1]; 100 μM): 100% | Melanin content d7 Mean ([1]; 100 μM): 161% | melanin synthesis in comparison to the control (in words) ([1]; both concentration levels tested (10 μM and 100 μM)): increased markedly | ckit expression, Mean (ckit; 10 μM): 1.32 x-times expression | ckit expression (in words) (ckit; 100 μM): induced | ckit expression, Mean (ckit; 100 μM): 3.55 x-times expression | gp100 expression, Mean (gp100; 10 μM): 0.89 x-times expression | gp100 expression (in words) (gp100; 100 μM): induced | gp100 expression, Mean (gp100; 100 μM): 3.48 x-times expression | MCR1 expression, Mean ([2]; 10 μM): 2.56 x-times expression | MCR1 expression (in words) ([2]; 10 μM, significantly differential = >= 1.8 times or <= 0.5 times untreated control): expressed in a significantly differential manner | MCR1 expression (in words) ([2]; 100 μM): induced | MCR1 expression, Mean ([2]; 100 μM): 5.17 x-times expression
